From US8293774B2, “Optically active (R)-aryloxypropionic acid amides and herbicidal composition comprising same” (Kyung Nong Corporation, priority 2007, dated 2012)

Assays:
Assay in all cases: Weed control test, foliage treatment (Test Example 1, Table 7)
[1] = tested on: ZEAMX (Zea mays L., corn); assay type: in vivo; details: Zea mays, foliar, read-out: Plant damage (herbicidal activity), visually evaluated, ZEAMX; for plant injury at 25 g/ha: 0.025 kg/ha; for plant injury at 100 g/ha: 0.1 kg/ha; for plant injury at 200 g/ha: 0.2 kg/ha
Experimental: (§1) Seeds of rice, wheat, soy bean, barley, corn, common sorgum, barnyard grass, large crabgrass, creek grass, green foxtail and fall panicum were placed in sandy loam in 600 cm^2 pots and covered with soil. After keeping the pots in a greenhouse at 20 to 30° C. allowing growth of the plants to the 3-leaf stage of the barnyard grass, 2,000 l/ha of an emulsion obtained by diluting with water a mixture of 1 part by weight of a test compound, 5 parts by weight of acetone and 1 part by weight of an emulsifying agent (Tween 80, Junsei) was applied to the surface of the foliage of the plants. The plant damage at 10 days and 20 days after the foliage treatment was visually evaluated from the level of 1 to 100% by comparison with the untreated control: […]

[2] = tested on: ECHOG (Echinoch crus-galli Beauv. var. caudata Kitagawa, barnyard grass); assay type: in vivo; details: Echinochloa crus-galli, foliar, 3-leaf stage, read-out: Plant damage (herbicidal activity), visually evaluated, ECHOG; for pest or weed control at 25 g/ha: 0.025 kg/ha; for pest or weed control at 100 g/ha: 0.1 kg/ha; for pest or weed control at 200 g/ha: 0.2 kg/ha
Experimental: as §1

[3] = tested on: SETVIR (Setaria viridis (L.) Beauv, green foxtail); assay type: in vivo; details: Setaria viridis, foliar, read-out: Plant damage (herbicidal activity), visually evaluated, SETVIR; for pest or weed control at 25 g/ha: 0.025 kg/ha; for pest or weed control at 100 g/ha: 0.1 kg/ha; for pest or weed control at 200 g/ha: 0.2 kg/ha
Experimental: as §1

[4] = tested on: ARTHIS (Arthraxon hispidus (Thunb.) Makino, creek grass); assay type: in vivo; details: Arthraxon hispidus, foliar, read-out: Plant damage (herbicidal activity), visually evaluated, ARTHIS; for pest or weed control at 25 g/ha: 0.025 kg/ha; for pest or weed control at 100 g/ha: 0.1 kg/ha; for pest or weed control at 200 g/ha: 0.2 kg/ha
Experimental: as §1

[5] = tested on: PANDI (Panium dichotomiflorum Michx, fall panicum); assay type: in vivo; details: Panicum dichotomiflorum, foliar, read-out: Plant damage (herbicidal activity), visually evaluated, PANDI; for pest or weed control at 25 g/ha: 0.025 kg/ha; for pest or weed control at 100 g/ha: 0.1 kg/ha; for pest or weed control at 200 g/ha: 0.2 kg/ha
Experimental: as §1

[6] = tested on: SORBI (Andropogon sorghum, common sorgum); assay type: in vivo; details: Sorghum bicolor, foliar, read-out: Plant damage (herbicidal activity), visually evaluated, SORBI; for pest or weed control at 25 g/ha: 0.025 kg/ha; for pest or weed control at 100 g/ha: 0.1 kg/ha; for pest or weed control at 200 g/ha: 0.2 kg/ha
Experimental: as §1

[7] = tested on: DIGSA (Digitaria Sanguinalis (L.) SCOP, large crabgrass); assay type: in vivo; details: Digitaria sanguinalis, foliar, read-out: Plant damage (herbicidal activity), visually evaluated, DIGSA; for pest or weed control at 25 g/ha: 0.025 kg/ha; for pest or weed control at 100 g/ha: 0.1 kg/ha; for pest or weed control at 200 g/ha: 0.2 kg/ha
Experimental: as §1

[8] = tested on: GLXMA (Glycine max(L.) MERR, soy bean); details: in vivo
Experimental: as §1

[9] = tested on: ORYSA (Oryza sativa cv. Dongjin, rice); details: in vivo
Experimental: as §1

[10] = tested on: TRZAW (Tritium aestivum L., wheat); details: in vivo
Experimental: as §1

[11] = tested on: HORVU (Hordeum vulgare L., barley); details: in vivo
Experimental: as §1

| SMILES | plant injury at 25 g/ha [1] [%] | plant injury at 100 g/ha [1] [%] | plant injury at 200 g/ha [1] [%] | pest or weed control at 25 g/ha [2] [%] | pest or weed control at 100 g/ha [2] [%] | pest or weed control at 200 g/ha [2] [%] | pest or weed control at 25 g/ha [3] [%] | pest or weed control at 100 g/ha [3] [%] | pest or weed control at 200 g/ha [3] [%] | pest or weed control at 25 g/ha [4] [%] | pest or weed control at 100 g/ha [4] [%] | pest or weed control at 200 g/ha [4] [%] | pest or weed control at 25 g/ha [5] [%] | pest or weed control at 100 g/ha [5] [%] | pest or weed control at 200 g/ha [5] [%] | pest or weed control at 25 g/ha [6] [%] | pest or weed control at 100 g/ha [6] [%] | pest or weed control at 200 g/ha [6] [%] | pest or weed control at 25 g/ha [7] [%] | pest or weed control at 100 g/ha [7] [%] | also measured |
| --- | --- | --- | --- | --- | --- | --- | --- | --- | --- | --- | --- | --- | --- | --- | --- | --- | --- | --- | --- | --- | --- |
| C[C@@H](Oc1ccc(OC(F)=Cc2ccccc2)cc1)C(=O)N(C)c1ccccc1F [Example 37, (R)-2-[4-(1-fluoro-2-phenylvinyloxy)phenoxy]propionic acid-N-(2-fluorophenyl)-N-methyl amide] | 0 | 0 | 30 | 20 | 70 | 90 | 0 | 0 | 20 | 0 | 0 | 10 | 0 | 0 | 10 | 0 | 20 | 20 | 0 | 20 | pest or weed control at 200 g/ha [7]: 90%; Plant damage (herbicidal activity), visually evaluated, GLXMA [8]: 0%; Plant damage (herbicidal activity), visually evaluated, ORYSA [9]: 0%; Plant damage (herbicidal activity), visually evaluated, TRZAW [10]: 0%; Plant damage (herbicidal activity), visually evaluated, HORVU [11]: 0% |
| Cc1ccc2nc(N(C)C(=O)[C@@H](C)Oc3ccc(Oc4ccc(C#N)cc4F)cc3)sc2c1 [Example 26, (R)-2-[4-(4-cyano-2-fluorophenoxy)phenoxy]propionic acid-N-(6-methyl-2-benzothiazolyl)-N-methyl amide] | 10 | 10 | 30 | 0 | 0 | 0 | 0 | 0 | 0 | 0 | 0 | 0 | 0 | 0 | 0 | 10 | 20 | 35 | 0 | 0 | pest or weed control at 200 g/ha [7]: 0%; Plant damage (herbicidal activity), visually evaluated, GLXMA [8]: 0%; Plant damage (herbicidal activity), visually evaluated, ORYSA [9]: 0%; Plant damage (herbicidal activity), visually evaluated, TRZAW [10]: 0%; Plant damage (herbicidal activity), visually evaluated, HORVU [11]: 0% |
| C[C@@H](Oc1ccc(C(F)=C(c2ccccc2)C(F)(F)F)cc1)C(=O)Nc1nc2cc(Cl)ccc2o1 [Example 55, (R)-2-[4-(1,3,3,3-tetrafluoro-2-phenylprop-1-enyl)phenoxy]propionic acid-N-(5-chloro-2-benzoxazolyl)amide] | 10 | 10 | 30 | 0 | 0 | 0 | 0 | 0 | 0 | 0 | 0 | 0 | 0 | 0 | 0 | 10 | 20 | 35 | 0 | 0 | pest or weed control at 200 g/ha [7]: 0%; Plant damage (herbicidal activity), visually evaluated, GLXMA [8]: 0%; Plant damage (herbicidal activity), visually evaluated, ORYSA [9]: 0%; Plant damage (herbicidal activity), visually evaluated, TRZAW [10]: 0%; Plant damage (herbicidal activity), visually evaluated, HORVU [11]: 0% |
| C[C@@H](Oc1ccc(Oc2ccc(C#N)cc2F)cc1)C(=O)Nc1cnccn1 [Example 35, (R)-2-[4-(4-cyano-2-fluorophenoxy)phenoxy]propionic acid-N-(2-pyrazinyl)amide] | 0 | 20 | 30 | 0 | 10 | 30 | 0 | 30 | 50 | 0 | 10 | 30 | 0 | 0 | 30 | 20 | 65 | 80 | 10 | 40 | pest or weed control at 200 g/ha [7]: 60%; Plant damage (herbicidal activity), visually evaluated, GLXMA [8]: 0%; Plant damage (herbicidal activity), visually evaluated, ORYSA [9]: 0%; Plant damage (herbicidal activity), visually evaluated, TRZAW [10]: 0%; Plant damage (herbicidal activity), visually evaluated, HORVU [11]: 0% |
| C[C@@H](Oc1ccc(Oc2ccc(C#N)cc2F)cc1)C(=O)Nc1nc2ccc(Cl)cc2s1 [Example 21, (R)-2-[4-(4-cyano-2-fluorophenoxy)phenoxy]propionic acid-N-(6-chloro-2-benzothiazolyl)amide] | 20 | 90 | 100 | 20 | 70 | 90 | 0 | 70 | 90 | 0 | 70 | 70 | 0 | 70 | 70 | 0 | 20 | 50 | 0 | 20 | pest or weed control at 200 g/ha [7]: 90%; Plant damage (herbicidal activity), visually evaluated, GLXMA [8]: 0%; Plant damage (herbicidal activity), visually evaluated, ORYSA [9]: 0%; Plant damage (herbicidal activity), visually evaluated, TRZAW [10]: 0%; Plant damage (herbicidal activity), visually evaluated, HORVU [11]: 0% |
| C[C@@H](Oc1ccc(Oc2ccc(C#N)cc2F)cc1)C(=O)Nc1nccs1 [Example 31, (R)-2-[4-(4-cyano-2-fluorophenoxy)phenoxy]propionic acid-N-(2-thiazolyl)amide] | 20 | 90 | 90 | 0 | 50 | 90 | 0 | 70 | 70 | 0 | 70 | 70 | 0 | 20 | 20 | 0 | 20 | 50 | 0 | 20 | pest or weed control at 200 g/ha [7]: 70%; Plant damage (herbicidal activity), visually evaluated, GLXMA [8]: 0%; Plant damage (herbicidal activity), visually evaluated, ORYSA [9]: 0%; Plant damage (herbicidal activity), visually evaluated, TRZAW [10]: 0%; Plant damage (herbicidal activity), visually evaluated, HORVU [11]: 0% |
